# According to patent US4622430A (priority 1982, dated 1986):
# Read-outs that look alike come from different tables or passages of the source.
# Legend:
# [1] = tested on: reserpine-induced catalepsy; test: Antagonism of reserpine-induced catalepsy in the mouse; format: in vivo, Male CD-1 mice; details: 0.75 h, read-out: ED50 (dose causing a reduction of the catalepsy score to 50% of the control group score), oral, reserpine 5 mg/kg i.p. 4 h before, scored 45 min after compound
# [2] = Irwin dose-range study/acute toxicity in the mouse; design: species or system Male CD-1 mice; details: in vivo; for selectivity ratio: LD50 acute oral toxicity / ED50 reserpine catalepsy, read-out: Therapeutic index (LD50/ED50); for LD50 at 168 h: oral, 7 days observation, method of Horn
# Text: Irwin Dose-Range Study/Acute Toxicity in the Mouse
# The animals were also observed daily for seven days post-dose and any mortalities noted. LD50 values were estimated using the method of Horn (Biometrics, 12, 311 (1956)).
# [3] = tested on: oxotremorine-induced tremor and salivation; test: Anti-oxotremorine test in the mouse; details: 0-3 scale; for Mean tremor score (± s.e.): vehicle 2,6-2,9; for Mean salivation score (± s.e.): vehicle 2,7-2,9
# [4] = tested on: CVS strain of rabies virus; format: in vivo, in Swiss-Webster mice
# [5] = 10 mg/kg oral, 10 min post-oxotremorine
# [6] = 100 mg/kg oral, 30 min post-oxotremorine
smiles,measurement,setting,value
"NC1C2C3CC4C5CC(C1C53)C42 (stereo not shown) [Compound 11, 4-amino-(D3)-trishomocubane]",ED50,[1],139 mg/kg
same,selectivity ratio,[2],7.2
same,LD50 at 168 h,[2],1000 mg/kg
"CC12C3CC4C5CC(C(C53)C1NCc1ccccc1)C42 (stereo not shown) [Compound 16, 4-Benzylamino-3-methyl-(D3)-trishomocubane]",ED50,[1],69.1 mg/kg
same,selectivity ratio,[2],> 14.5
same,LD50 at 168 h,[2],> 1000 mg/kg
same,Mean tremor score (± s.e.),[3]; [5],"1,4 ± 0,2"
same,Mean salivation score (± s.e.),[3]; [5],"1,3 ± 0,2"
"CC12C3CC4C5CC(C(C53)C1NCCc1ccccc1)C42 (stereo not drawn) [Compound 17, 4-(β-phenyl)ethylamino-3-methyl-(D3)-trishomocubane]",Mean tremor score (± s.e.),[3]; [6],"1,4 ± 0,2"
same,Mean salivation score (± s.e.),[3]; [6],"1,0 ± 0,3"
"NC1C2C3CC4C5CC(C42)C1(c1ccccc1)C53 (stereo not shown) [Compound 19, 4-amino-3-phenyl-(D3)-trishomocubane]",ED50,[1],32.2 mg/kg
same,selectivity ratio,[2],25.6
same,LD50 at 168 h,[2],825 mg/kg
same,"Survival parameter (sum of days survived by six mice, up to 14 days each)","[4]; i.p. 10 mg/kg, 24 hours post inoculation, control 53 (compound 14), 59 (compound 19)",66
same,"Survival parameter (sum of days survived by six mice, up to 14 days each)","[4]; i.p. 10 mg/kg, 96 hours post inoculation, control 52 (compound 14), 61 (compound 19)",77
same,"Survival parameter (sum of days survived by six mice, up to 14 days each)","[4]; i.p. 21,5 mg/kg, 24 hours post inoculation, control 53 (compound 14), 59 (compound 19)",65
same,"Survival parameter (sum of days survived by six mice, up to 14 days each)","[4]; i.p. 21,5 mg/kg, 96 hours post inoculation, control 52 (compound 14), 61 (compound 19)",71
same,"Survival parameter (sum of days survived by six mice, up to 14 days each)","[4]; i.p. 46,4 mg/kg, 24 hours post inoculation, control 53 (compound 14), 59 (compound 19)",66
same,"Survival parameter (sum of days survived by six mice, up to 14 days each)","[4]; i.p. 46,4 mg/kg, 96 hours post inoculation, control 52 (compound 14), 61 (compound 19)",68
same,Mean salivation score (± s.e.),"[3]; 30 mg/kg oral, 20 min post-oxotremorine","1,0 ± 0,2"
"CNC1C2C3CC4C5CC(C42)C1(C)C53 (stereo not shown) [Compound 23, 3-methyl-4-methylamino-(D3)-trishomocubane]",Mean salivation score (± s.e.),"[3]; 30 mg/kg oral, 30 min post-oxotremorine","0,8 ± 0,2"
same,Mean tremor score (± s.e.),"[3]; 100 mg/kg oral, 10 min post-oxotremorine","1,2 ± 0,2"
